From publication PMC8162404, “Proteomimetic surface fragments distinguish targets by function” (Chemical Science, 2020) come the findings set out here.

What all share (test): Pull-down assay with immobilized protein and LSM libraries
The target in one assay is T1, CaM (Bos taurus, UniProt P62157).
T1 construct: made in house; host or cells: E. coli BL21 (DE3)
Format: binding, bovine. The settings on record: 1:2 stoichiometry assumed, read-out: Surface mapping KD (apparent). The method, then: Pull-down assays with immobilized test proteins and foldameric LSM libraries were carried out. Proteins were equilibrated with LSM probes, and equilibrium bound fractions (FB) were determined from the unbound fractions measured by HPLC-MS methods. Hits were corrected with background binding of the resin. The protocol allowed all binding events to equilibrate irrespective of affinity, specificity, and binding kinetics. This was essential to judge overall druggability and promiscuity. Importantly, the concentration of protein and the total concentration of foldameric LSMs were equimolar, which minimized competition between the probes. This experimental setup approximated independent binding of individual library members. Results were visualized as heat maps of dissociation constants (Fig. 3).
Pull-down assay and data analysis
Pull-down assay. LSM sublibraries were screened separately as previously described.(2) Experiments were performed in the following buffers: (i) 20 mM pH 7.4 HEPES, 150 mM NaCl, 5 mM CaCl2 for CaM; (ii) 50 mM pH 7.4 HEPES, 150 mM NaCl, 1 mM TCEP, 1 mM CaCl2 for S100 proteins; (iii) 20 mM pH 7.4 HEPES, 150 mM NaCl, 1 mM TCEP for Gal-1 and (iv) 20 mM pH 7.4 HEPES, 150 mM NaCl for RecQ-WH. Assays were performed in paper filter spin cups (Thermo Scientific) with sample volumes of 100 µl. Hexahistidine-tagged proteins were immobilized on previously washed Co-NTA resin (TALON, Takara Bio USA, Inc., […]
LSM sublibrary was added, in which each of the 64 library members were used at a concentration of 1 µM. Samples were incubated at room temperature for 30 min with shaking at 100 rpm. Then, samples were centrifuged at 1000 rpm for 2 min and washed with 100 µl pull-down buffer to remove unbound compounds.
The control experiments were performed using the same compounds and the resin but without the immobilized protein. In case of competitive assays, competitor peptides were added to LSM sublibrary samples in 200 µM final concentration. In the case of Gal-1, lactose (competitor) was used in a concentration of 10 mM. Experiments were performed at least twice. Mean […]
LC-MS methods and parameters. HPLC/ESI-MS analysis was used to characterize the samples from the pull-down assay. LC-MS analysis was performed with a Thermo Scientific Dionex UltiMate 3000 HPLC system interfaced to an LTQ ion trap mass spectrometer (Thermo Electron Corp., San Jose, CA, USA). Samples were injected onto an Aeris Widepore XB-C18 (250 x 4.6 mm) analytical HPLC column using gradient elution 5-80 % solution B during 25 minutes. For pull-down samples, eluent composition was 0.1% acetic acid in distilled water (Solution A) and 0.1% acetic acid in acetonitrile (solution B). Mass spectra were acquired in full scan mode from 200 to 2000 m/z range. For overlapping peaks, selective reaction monitoring (SRM) was […]
MS data analysis. Thermo Xcalibur 2.2 software was used for peak identification and integration. The majority of the foldameric fragments could be resolved independently via HPLC-MS/MS measurements based on molecular weight, MS fragmentation pattern and retention time. Peaks of some foldamers with β3-hIle or β3-hLeu in position R2 could not be resolved, these were integrated and averaged. In the processing method, each sample component was associated to a chromatographic peak based on previously identified mass (m/z) and retention time (ref (2) and Table S7-10). Using ICIS peak detection algorithm, the general detection and integration criteria were: smoothing points: 5, baseline window: 80, area noise factor: 5, peak noise factor: 10. Using these processing setups, all raw data files were reprocessed together and analyzed. Errors in peak identification during the automatic processing were corrected manually.
Calculation of the discussed parameters
1. Bound fractions (FB.) were calculated from the HPLC-MS intensity loss of the LSM probes compared to the control where no protein was immobilized to the resin: […]

The target in the next assay is T2, Gal-1 (Homo sapiens, UniProt P09382).
T2 construct: made in house; host or cells: E. coli BL21(DE3)
T2 sequence (P09382 whole entry): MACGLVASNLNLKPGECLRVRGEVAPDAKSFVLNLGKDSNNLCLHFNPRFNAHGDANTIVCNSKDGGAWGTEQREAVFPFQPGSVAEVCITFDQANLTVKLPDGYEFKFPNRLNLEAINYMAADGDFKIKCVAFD
Type of assay: binding. Particulars: H12 library; 1:1 binding assumed; read-out: Surface mapping KD (apparent). In a few lines: (§1)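 Buffers were HEPES pH 7.4 with 150 mM NaCl, plus 1 mM TCEP and 1 mM CaCl2 (50 mM HEPES) for S100A4 and S100B, 1 mM TCEP for Gal-1, and no additive for RecQ-WH. Immobilized protein at 64 µM was equilibrated 30 min with the LSM sublibrary, and unbound probes were measured by LC-MS.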

The target in a further assay is T3, S100B (Homo sapiens, UniProt P04271).
T3 construct: made in house; host or cells: Escherichia coli BL21(DE3)
T3 sequence (P04271 1-92): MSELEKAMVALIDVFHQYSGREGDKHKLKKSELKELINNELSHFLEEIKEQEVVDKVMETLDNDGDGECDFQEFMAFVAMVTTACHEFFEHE
Type of assay: binding. The settings on record: 1:1 binding assumed, read-out: Surface mapping KD (apparent). In a few lines: as §1

Like-named read-outs stand apart in the source and are kept apart here.

On to `C[C@@H](CC(=O)N[C@H]1CCC[C@@H]1C(=O)N[C@H]1CCC[C@@H]1C(=O)N[C@H](CC(=O)N[C@H]1CCC[C@@H]1C(=O)N[C@H]1CCC[C@@H]1C(N)=O)Cc1c[nH]c2ccccc12)NC(=O)[C@H]1CCC[C@@H]1NC(=O)[C@H]1CCC[C@@H]1N` [H12 AW], for which the Kd on CaM (H12 library) came out at 234 µM; at Gal-1 it was 355 µM; on S100B (H12 library), 62 µM.

Turning to `C[C@@H](CC(=O)N[C@H]1CCC[C@@H]1C(=O)N[C@H]1CCC[C@@H]1C(N)=O)NC(=O)[C@H]1CCC[C@@H]1NC(=O)[C@H]1CCC[C@@H]1NC(=O)C[C@H](Cc1ccccc1)NC(=O)[C@H]1CCC[C@@H]1NC(=O)[C@H]1CCC[C@@H]1N` [H12 FA], the Kd at CaM (H12 library) worked out at 496 µM; on Gal-1 it was 341 µM; on S100B (H12 library), 116 µM.

Regarding `CC[C@H](C)[C@@H](CC(=O)N[C@H]1CCC[C@@H]1C(=O)N[C@H]1CCC[C@@H]1C(=O)N[C@@H](CCCNC(=N)N)CC(=O)N[C@H]1CCC[C@@H]1C(=O)N[C@H]1CCC[C@@H]1C(N)=O)NC(=O)[C@H]1CCC[C@@H]1NC(=O)[C@H]1CCC[C@@H]1N` [H12 IR], the Kd was 236 µM on CaM (H12 library), 120 µM on Gal-1 and 39 µM at S100B (H12 library).

Consider `CC[C@H](C)[C@@H](CC(=O)N[C@H]1CCC[C@@H]1C(=O)N[C@H]1CCC[C@@H]1C(N)=O)NC(=O)[C@H]1CCC[C@@H]1NC(=O)[C@H]1CCC[C@@H]1NC(=O)C[C@H](CCCCN)NC(=O)[C@H]1CCC[C@@H]1NC(=O)[C@H]1CCC[C@@H]1N` [H12 KI], for which the Kd was 314 µM on CaM (H12 library), 250 µM at Gal-1 and 71 µM at S100B (H12 library).

Turning to `N=C(N)NCCC[C@@H](CC(=O)N[C@H]1CCC[C@@H]1C(=O)N[C@H]1CCC[C@@H]1C(N)=O)NC(=O)[C@H]1CCC[C@@H]1NC(=O)[C@H]1CCC[C@@H]1NC(=O)C[C@H](CCCCN)NC(=O)[C@H]1CCC[C@@H]1NC(=O)[C@H]1CCC[C@@H]1N` [H12 KR], the Kd at CaM (H12 library) came to 330 µM; on Gal-1 it was 231 µM; on S100B (H12 library), 146 µM.

As to `CC(C)C[C@@H](CC(=O)N[C@H]1CCC[C@@H]1C(=O)N[C@H]1CCC[C@@H]1C(=O)N[C@H](CC(=O)N[C@H]1CCC[C@@H]1C(=O)N[C@H]1CCC[C@@H]1C(N)=O)C(C)C)NC(=O)[C@H]1CCC[C@@H]1NC(=O)[C@H]1CCC[C@@H]1N` [H12 LV], the Kd at CaM (H12 library) was determined as 270 µM; at Gal-1, 468 µM; at S100B (H12 library), 116 µM.

For `CSCC[C@@H](CC(=O)N[C@H]1CCC[C@@H]1C(=O)N[C@H]1CCC[C@@H]1C(=O)N[C@H](CC(=O)N[C@H]1CCC[C@@H]1C(=O)N[C@H]1CCC[C@@H]1C(N)=O)C(C)C)NC(=O)[C@H]1CCC[C@@H]1NC(=O)[C@H]1CCC[C@@H]1N` [H12 MV], the Kd came to 342 µM on CaM (H12 library), 247 µM at Gal-1 and 127 µM at S100B (H12 library).

Turning to `CSCC[C@@H](CC(=O)N[C@H]1CCC[C@@H]1C(=O)N[C@H]1CCC[C@@H]1C(=O)N[C@H](CC(=O)N[C@H]1CCC[C@@H]1C(=O)N[C@H]1CCC[C@@H]1C(N)=O)Cc1ccc(O)cc1)NC(=O)[C@H]1CCC[C@@H]1NC(=O)[C@H]1CCC[C@@H]1N` [H12 MY], the Kd came to 178 µM at CaM (H12 library), 286 µM on Gal-1 and 102 µM at S100B (H12 library).

Turning to `NC(=O)CC[C@@H](CC(=O)N[C@H]1CCC[C@@H]1C(=O)N[C@H]1CCC[C@@H]1C(=O)N[C@H](CC(=O)N[C@H]1CCC[C@@H]1C(=O)N[C@H]1CCC[C@@H]1C(N)=O)Cc1c[nH]c2ccccc12)NC(=O)[C@H]1CCC[C@@H]1NC(=O)[C@H]1CCC[C@@H]1N` [H12 QW], the Kd on CaM (H12 library) turned out to be 55 µM; at Gal-1 it was 412 µM; on S100B (H12 library) it was 170 µM.

For the compound `CC[C@H](C)[C@@H](CC(=O)N[C@H]1CCC[C@@H]1C(=O)N[C@H]1CCC[C@@H]1C(N)=O)NC(=O)[C@H]1CCC[C@@H]1NC(=O)[C@H]1CCC[C@@H]1NC(=O)C[C@H](CO)NC(=O)[C@H]1CCC[C@@H]1NC(=O)[C@H]1CCC[C@@H]1N` [H12 SI], the Kd turned out to be 252 µM at CaM (H12 library) and 419 µM at S100B (H12 library).

As for `CC(C)C[C@@H](CC(=O)N[C@H]1CCC[C@@H]1C(=O)N[C@H]1CCC[C@@H]1C(N)=O)NC(=O)[C@H]1CCC[C@@H]1NC(=O)[C@H]1CCC[C@@H]1NC(=O)C[C@H](CO)NC(=O)[C@H]1CCC[C@@H]1NC(=O)[C@H]1CCC[C@@H]1N` [H12 SL], the Kd came to 252 µM at CaM (H12 library) and 419 µM at S100B (H12 library).

Turning to `C[C@@H](O)[C@@H](CC(=O)N[C@H]1CCC[C@@H]1C(=O)N[C@H]1CCC[C@@H]1C(=O)N[C@H](CC(=O)N[C@H]1CCC[C@@H]1C(=O)N[C@H]1CCC[C@@H]1C(N)=O)Cc1ccccc1)NC(=O)[C@H]1CCC[C@@H]1NC(=O)[C@H]1CCC[C@@H]1N` [H12 TF], the results for the Kd at CaM (H12 library) and on S100B (H12 library) were 90 µM and 185 µM, respectively.

On to `C[C@@H](O)[C@@H](CC(=O)N[C@H]1CCC[C@@H]1C(=O)N[C@H]1CCC[C@@H]1C(=O)N[C@@H](CCCNC(=N)N)CC(=O)N[C@H]1CCC[C@@H]1C(=O)N[C@H]1CCC[C@@H]1C(N)=O)NC(=O)[C@H]1CCC[C@@H]1NC(=O)[C@H]1CCC[C@@H]1N` [H12 TR], for which the Kd on CaM (H12 library) came out at 282 µM; at S100B (H12 library) it was 286 µM.

For `C[C@@H](O)[C@@H](CC(=O)N[C@H]1CCC[C@@H]1C(=O)N[C@H]1CCC[C@@H]1C(=O)N[C@H](CC(=O)N[C@H]1CCC[C@@H]1C(=O)N[C@H]1CCC[C@@H]1C(N)=O)Cc1c[nH]c2ccccc12)NC(=O)[C@H]1CCC[C@@H]1NC(=O)[C@H]1CCC[C@@H]1N` [H12 TW], the Kd on CaM (H12 library) is 25 µM; at S100B (H12 library) it was 113 µM.

For the compound `C[C@@H](CC(=O)N[C@H]1CCCC[C@@H]1C(=O)N[C@H]1CCCC[C@@H]1C(=O)N[C@@H](CCCCN)CC(=O)N[C@H]1CCCC[C@@H]1C(N)=O)NC(=O)[C@H]1CCCC[C@@H]1N` [H14 AK], the Kd at CaM (H14 library) was found to be 181 µM; on S100B (H14 library), 180 µM.

For the compound `NCCCC[C@@H](CC(=O)N[C@H]1CCCC[C@@H]1C(=O)N[C@H]1CCCC[C@@H]1C(=O)N[C@@H](CCC(N)=O)CC(=O)N[C@H]1CCCC[C@@H]1C(N)=O)NC(=O)[C@H]1CCCC[C@@H]1N` [H14 KQ], the figures for the Kd on CaM (H14 library) and on S100B (H14 library) were 307 µM and 173 µM, respectively.

As to `NCCCC[C@@H](CC(=O)N[C@H]1CCCC[C@@H]1C(=O)N[C@H]1CCCC[C@@H]1C(=O)N[C@@H](CO)CC(=O)N[C@H]1CCCC[C@@H]1C(N)=O)NC(=O)[C@H]1CCCC[C@@H]1N` [H14 KS], the Kd on CaM (H14 library) is 262 µM; at S100B (H14 library), 217 µM.

On to `C[C@@H](O)[C@@H](CC(=O)N[C@H]1CCCC[C@@H]1C(N)=O)NC(=O)[C@H]1CCCC[C@@H]1NC(=O)[C@H]1CCCC[C@@H]1NC(=O)C[C@H](CCCNC(=N)N)NC(=O)[C@H]1CCCC[C@@H]1N` [H14 RT], for which the figures for the Kd on CaM (H14 library) and at S100B (H14 library) were 124 µM and 324 µM, respectively.
